“Also recorded” adds a separate entry of the source.

These results are taken from patent publication US20240002437A1, “COMPOSITIONS AND METHODS OF TREATING INFLAMMATORY LUNG DISEASES” (priority 2020, published 2024).

The subject of this assay is TRPV4. The assay can be described thus: Cytosolic Ca2+ concentration ([Ca2+]cyt), fura-2/AM loaded PAEC. The class given is cell-based, ovine. The conditions noted are these: 4αPDD 10 μM. The method, then:
Primary cultures of ovine pulmonary arterial endothelial cells (PAEC) were isolated as described previously (L. K. Kelly, Am J Physiol Lung Cell Mol Physiol, 286(5), L984-91 (2004)). Briefly, cells were maintained in Dulbecco's modified Eagle medium (DMEM) supplemented with 10% fetal calf serum (Hyclone, Logan, UT), antibiotics/antimycotic (500 IU Penicillin, 500 μg/ml Streptomycin, 1.25 μg/ml Amphotericin B; MediaTech, Herndon, VA) at 37° C. in a humidified atmosphere with 5% CO2 and 95% air. Cells were used for experiments between passages 9-14, seeded at ˜50% confluence, and utilized when fully confluent.
PAEC were grown at 50-60% confluence on 25-mm-diameter circular glass coverslips. […] The fluorescence emission (at 520 nm) was captured with an EM-CC camera (Evolve; Photometric, Tucson, AZ) and analyzed using NIS Elements 3.2 software (Nikon). [Ca^2+]cyt is expressed as 340/380 fluorescence ratio within an area of interest in the peripheral area of a cell recorded every 2 s. […] [Ca^2+]cyt was calculated using the following equation: [Ca^2+]cyt=Kd×(Sf2/Sf1)×(R−Rmin)/(Rmax−R). Kd (225 nM) is the dissociation constant of the Ca2+-fura-2 complex; and Sf2 and Sf1 and Rmin and Rmax were calculated using a standard protocol (G. Grynkiewicz, J Biol Chem, 260(6), 3440-50 (1985)). […]

For the compound `CCCCCCCCCC(=O)O[C@@H]1[C@@H](C)[C@@]2(O)[C@@H](C=C(CO)C[C@@]3(O)C(=O)C(C)=C[C@@H]23)[C@@H]2C(C)(C)[C@]12OC(=O)CCCCCCCCC` [4αPDD, 4α-Phorbol-12,13 didecanoate], the “cytosolic free Ca2+ concentration ([Ca2+]cyt)” value is “transient increase of [Ca^2+]cyt; also recorded: induced a transient increase”.
